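Five compound concentrations were applied to cells in 96-well plates for 48 hours; endpoints were derived by simple linear interpolation of the resulting dose-response curve. GI50 is the concentration that inhibits growth by half.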 Calls of active or inactive are those of the source. No stated cut-off is given here; in the data, active = GI50 up to about 1.1 µM and inactive = higher.
Assays:
Test in all cases: inhibition of tumour cell growth, NCI panel, 48 h
UACC-62 = system: UACC-62
OVCAR-3 = system: OVCAR-3
CAKI-1 = system: CAKI-1
M14 = system: M14
COLO 205 = system: COLO 205
RPMI-8226 = system: RPMI-8226
SF-295 = system: SF-295
HL-60 = system: HL-60
PC-3 = system: PC-3
HT-29 = system: HT-29
SR = system: SR
786-0 = system: 786-0
NCI-H23 = system: NCI-H23
SNB-19 = system: SNB-19
RXF 393 = system: RXF 393
Hs-578T = system: Hs-578T
NCI-H226 = system: NCI-H226
MCF7 = system: MCF7
UACC-257 = system: UACC-257
LOX IMVI = system: LOX IMVI

Measured: GI50

Cc1nc2ccccc2c(=O)n1NC(=S)Nc1ccc(Cl)cc1[N+](=O)[O-]
inactive: UACC-62 > 100 µM | OVCAR-3 > 100 µM | CAKI-1 > 100 µM | M14 > 100 µM | COLO 205 > 100 µM | RPMI-8226 > 100 µM | SF-295 > 100 µM | HL-60 > 100 µM | PC-3 > 100 µM | HT-29 > 100 µM | SR > 100 µM | 786-0 > 100 µM | NCI-H23 > 100 µM | SNB-19 > 72.8 µM | RXF 393 > 100 µM | Hs-578T > 100 µM | NCI-H226 > 10 µM | MCF7 > 100 µM | UACC-257 > 100 µM

c1nncn1C12C3C4C5C3C1C5C42 (stereo unspecified)
inactive: LOX IMVI > 100 µM | COLO 205 > 100 µM | RPMI-8226 > 100 µM | SF-295 > 100 µM | HL-60 > 100 µM | PC-3 > 100 µM | HT-29 > 100 µM | SR > 100 µM | 786-0 > 100 µM | NCI-H23 > 100 µM | SNB-19 > 100 µM | Hs-578T > 100 µM | NCI-H226 > 100 µM | MCF7 > 100 µM | UACC-257 > 100 µM

[N-]=[N+]=Nc1nc2ccccc2c(N=[N+]=[N-])c1Cl
inactive: UACC-62 98.4 µM | LOX IMVI > 100 µM | OVCAR-3 > 100 µM | CAKI-1 > 100 µM | M14 > 100 µM | COLO 205 > 100 µM | RPMI-8226 > 100 µM | SF-295 > 100 µM | HL-60 > 100 µM | PC-3 > 100 µM | HT-29 > 100 µM | SR > 100 µM | 786-0 56.2 µM | NCI-H23 > 100 µM | SNB-19 > 100 µM | RXF 393 25.6 µM | Hs-578T 31.6 µM | MCF7 > 100 µM | UACC-257 > 100 µM

C#CCOC(=O)C(N)CCCNC(=N)N (stereo unspecified)
inactive: LOX IMVI > 100 µM | CAKI-1 > 100 µM | M14 > 100 µM | COLO 205 > 100 µM | RPMI-8226 > 100 µM | HL-60 > 100 µM | PC-3 > 100 µM | HT-29 > 100 µM | SR > 100 µM | 786-0 > 100 µM | NCI-H23 > 100 µM | SNB-19 > 100 µM | RXF 393 > 100 µM | Hs-578T > 100 µM | NCI-H226 > 100 µM | MCF7 > 100 µM | UACC-257 > 100 µM

Fc1ccccc1C1SCC2=Nc3ccccc3CN21 (stereo unspecified)
inactive: UACC-62 99.8 µM | LOX IMVI > 100 µM | OVCAR-3 97.1 µM | CAKI-1 > 100 µM | M14 > 100 µM | COLO 205 > 100 µM | RPMI-8226 > 100 µM | SF-295 70.8 µM | HL-60 > 100 µM | PC-3 > 100 µM | HT-29 > 100 µM | SR 79.8 µM | 786-0 95.3 µM | NCI-H23 > 100 µM | SNB-19 > 100 µM | RXF 393 > 100 µM | Hs-578T > 100 µM | MCF7 80.2 µM | UACC-257 > 100 µM

CCOC(=O)C1(N)CCc2[nH][nH]c(=O)c2C1 (stereo unspecified)
inactive: UACC-62 > 100 µM | LOX IMVI > 100 µM | OVCAR-3 > 100 µM | CAKI-1 > 100 µM | M14 > 100 µM | COLO 205 > 100 µM | RPMI-8226 > 100 µM | SF-295 > 100 µM | HL-60 > 100 µM | PC-3 > 100 µM | HT-29 > 100 µM | SR > 100 µM | 786-0 > 100 µM | NCI-H23 > 100 µM | SNB-19 > 100 µM | Hs-578T > 100 µM | NCI-H226 > 100 µM | MCF7 > 100 µM | UACC-257 > 100 µM

c1ccc(-c2csc3c2-n2cccc2C3N2CCCC2)cc1 (stereo unspecified)
inactive: LOX IMVI 40.7 µM | OVCAR-3 6.9 µM | CAKI-1 72.3 µM | COLO 205 > 10 µM | RPMI-8226 20.8 µM | SF-295 23.8 µM | HL-60 23.5 µM | PC-3 32.7 µM | HT-29 28.2 µM | SR 57.7 µM | 786-0 58.1 µM | NCI-H23 20.9 µM | SNB-19 19.6 µM | RXF 393 > 100 µM | Hs-578T 62.1 µM | NCI-H226 85.1 µM | MCF7 30.5 µM | UACC-257 7.36 µM

COc1cc(OC2OC(CO)C(O)C(O)C2O)c2c(c1)O[C@@H]1[C@H](O)Oc3cc(OC)c(OC)cc3[C@]1(O)C2=O (stereo partly specified)
inactive: UACC-62 > 25 µM | LOX IMVI > 25 µM | OVCAR-3 > 25 µM | CAKI-1 > 25 µM | M14 > 25 µM | COLO 205 > 25 µM | RPMI-8226 > 25 µM | SF-295 > 25 µM | HL-60 > 25 µM | PC-3 > 25 µM | HT-29 > 25 µM | SR > 25 µM | 786-0 > 25 µM | NCI-H23 > 25 µM | SNB-19 > 25 µM | Hs-578T > 25 µM | NCI-H226 > 25 µM | MCF7 > 25 µM | UACC-257 > 25 µM

CCOC(=O)N(C)CCC1CC=CC(=O)C1c1cccc(OC)c1OC (stereo unspecified)
inactive: UACC-62 15.6 µM | LOX IMVI 38.7 µM | OVCAR-3 11.8 µM | CAKI-1 20.9 µM | M14 19.5 µM | COLO 205 4 µM | RPMI-8226 14.2 µM | SF-295 31 µM | HL-60 19.4 µM | PC-3 12.2 µM | HT-29 13.8 µM | SR 14.3 µM | 786-0 17 µM | NCI-H23 14 µM | SNB-19 23.3 µM | RXF 393 10.5 µM | Hs-578T 71.4 µM | MCF7 16.9 µM | UACC-257 13.4 µM

COc1cc(OCc2ccccc2)c2c(CCC(=O)O)cc(=O)oc2c1.COc1cc(OCc2ccccc2)cc2oc(=O)cc(CCC(=O)O)c12
inactive: UACC-62 63.2 µM | LOX IMVI 20.9 µM | OVCAR-3 31 µM | CAKI-1 28.6 µM | M14 92.5 µM | COLO 205 67.3 µM | RPMI-8226 57.3 µM | HL-60 34.1 µM | PC-3 56.8 µM | HT-29 36.7 µM | SR 38.9 µM | 786-0 92.5 µM | NCI-H23 33.9 µM | SNB-19 92.3 µM | Hs-578T 50.6 µM | NCI-H226 87.3 µM | MCF7 2.59 µM | UACC-257 > 100 µM

NNC(=O)c1ccccc1Nc1nc(-c2cccs2)nc2ccc(Br)cc12
inactive: UACC-62 > 100 µM | LOX IMVI 44.9 µM | OVCAR-3 25.9 µM | CAKI-1 74.3 µM | M14 86.7 µM | COLO 205 > 100 µM | RPMI-8226 > 100 µM | SF-295 51.8 µM | HL-60 71.3 µM | PC-3 44.4 µM | HT-29 78.5 µM | SR > 100 µM | 786-0 49.5 µM | NCI-H23 > 100 µM | SNB-19 53.3 µM | Hs-578T > 100 µM | NCI-H226 > 100 µM | MCF7 49.5 µM | UACC-257 > 100 µM

— ChEMBL document CHEMBL1201862, “PubChem BioAssay data set” (2004)
